Source: the NIST ThermoML archive (doi:10.1016/j.jct.2019.06.026)
Numbers after ± are expanded uncertainties.

Settings: Liquid, Ebulliometric method (Recirculating still)

OCC(F)(F)C(F)F [2,2,3,3-tetrafluoro-1-propanol]
vapor or sublimation pressure (381.95 K): 101.3 ± 3.6 kPa

CNC=O [N-methylformamide]
vapor or sublimation pressure (471.2 K): 101.3 ± 3.6 kPa

CN1CCCC1=O [N-methylpyrrolidone]
vapor or sublimation pressure (476.05 K): 101.3 ± 3.6 kPa

CN(C)C=O [dimethylformamide]
vapor or sublimation pressure (426.05 K): 101.3 ± 3.6 kPa
